PMC9973354 (mBio, 2022)

Assays:
Type in all cases: cell-based, Pseudomonas aeruginosa
[1] = test system: PA14 ΔfpvA ΔfpvB ΔfiuA ΔfoxA pHERD20T-fpvB R191A; assay: Growth of quadruple mutant expressing FpvB R191A; details: 10:90 + 2% arabinose
Experimental: (§1) Site-directed mutagenesis was used to confirm the docking predictions and to define the molecular determinants for ligand uptake through FpvB (Fig. 4C). We generated 17 single amino acid substitutions in FpvB and expressed each of them in trans in the quadruple ΔfpvA ΔfpvB ΔfiuA ΔfoxA mutant. Their ability to complement growth of the mutant in the presence of ferrichrome and ferrioxamine B and to restore TS susceptibility was assessed. […] The mutant transporters were tagged with a C-terminal FLAG tag to evaluate expression levels. FLAG-tagged FpvB mutants had WT levels of expression except for Y216T and W347V, which were expressed at 140% and 25% of WT, respectively.
(§2) The ΔfpvA ΔfpvB ΔfiuA ΔfoxA mutant was complemented with WT fpvA, fpvB, fiuA, and foxA in trans as controls (Fig. 4E).
(§3) MIC assays were conducted as previously described ([13], [14]). Overnight cultures were grown in LB from a glycerol stock at 37°C with shaking (200 rpm). Subcultures in 10:90 (1:100 dilution) were cultured for 4 h. Cells were adjusted to an optical density at 600 nm (OD600) of 0.1/500 in 10:90. All compounds were serially diluted 2-fold in dimethyl sulfoxide (DMSO) or H2O at 75× the final concentration. […] The next day, the OD600 was determined with a plate reader (Thermo Scientific) and normalized to percent of growth of the vehicle control after subtracting the OD600 from blank media.

[2] = test system: PA14 ΔfpvA ΔfpvB pHERD20T-fpvA; assay: Checkerboard assay TS and siderophores, FpvA expressed; details: 10:90 + 2% arabinose
Text: We investigated this hypothesis by treating the ΔfpvA ΔfpvB mutant complemented with fpvA or fpvB with TS and pyoverdine-Fe^3+. If pyoverdine competes with TS for the same binding site in the transporter, a reduction in TS susceptibility would be expected, as competition would decrease entry of the antibiotic into the cell. TS susceptibility decreased >8-fold with increasing concentrations of pyoverdine-Fe^3+ when FpvA was expressed (see Fig. S2A in the supplemental material).
Supplementary file : FIG S2 Checkerboard assays of the PA14 ΔfpvA ΔfpvB strain complemented with fpvA and fpvB in trans with TS and siderophores. […] Checkerboards of the PA14 ΔfpvA ΔfpvB pHERD20T-fpvB strain with TS and enterobactin (G), ferrioxamine E (H), and arthrobactin (I). Results are averaged from three independent biological replicates. Cells in the assay were grown in 10:90 + 2% arabinose. Download FIG S2, EPS file, 2.2 MB.
Checkerboards (8 rows by 8 columns) were conducted as previously described in a 96-well plate (Nunc) ([13], [14]). TS at 75× the final concentration dissolved in DMSO was added in columns from bottom to top in increasing concentrations. Siderophores at 75× the final concentration dissolved in DSMO were added from in rows from left to right in increasing concentrations. Four columns were used for vehicle controls (DMSO) and sterile controls. […] Plates were sealed to prevent evaporation and incubated at 37°C overnight in a shaking incubator (200 rpm). The next day, the OD600 was determined with a plate reader (Thermo Scientific) and normalized to percent of growth of the vehicle control (DMSO) after subtracting the OD600 from blank media.

[3] = test system: PA14 ΔfpvA ΔfpvB ΔfiuA ΔfoxA pHERD20T-fpvB W347V; assay: Growth of quadruple mutant expressing FpvB W347V; details: FpvB W347V (expressed at 25% of WT), 10:90 + 2% arabinose
Experimental: as §1, §2, §3

[4] = test system: PA14 ΔfpvA ΔfpvB ΔfiuA ΔfoxA pHERD20T; assay: Growth of quadruple mutant with empty vector; details: 10:90 + 2% arabinose
Experimental: as §1, §2, §3

SMILES: CC(=O)N(O)CCCCCNC(=O)CCC(=O)N(O)CCCCCNC(=O)CCC(=O)N(O)CCCCCN [ferrioxamine B]
- growth in the presence of siderophore [1]: prevented growth
- effect of siderophore on TS susceptibility [2]: None of those siderophores reduced TS susceptibility
- growth in the presence of siderophore [3]: prevented growth
- growth in the presence of siderophore [4]: inhibited
